For assay [1], the system named is chimeric RARβ receptor protein. Briefly: Cationic Liposome Mediated Transfection Assay, RARβ. It counts as cell-based. To be noted: Table 1; 50% of maximum CAT activity of all-trans retinoic acid; HeLa cells. The procedure: (§1) The above-mentioned Cationic Liposome Mediated Transfection Assay assay by which the activity of a test compound as a potential agonist of the RXR and RAR receptor sites is determined, is performed substantially as reported by Feigner P. L. and Holm M. (1989) Focus, 11-2, and is described below first in principle and thereafter in the form of specific instructions how to perform the assay.
(§2) In connection with this assay it is known that retinoic acid receptors arena member of the steroid/thyroid receptor super family and that they contain domains which are interchangeable within individual receptors. Thus, plasmids for chimeric retinoid receptors containing estrogen DNA binding domain and estrogen response element chloramphenicol acetyl-transferase enzyme are constructed and are grown in specific cultured bacteria. These plasmids respectively code for chimeric RARα, RARβ, RARγ, RXRα receptor proteins, and for the chloramphenicol acetyl A transferase (CAT) enzyme protein. The bacteria with these plasmids are obtainable in accordance with the procedure set forth in the article titled "Nuclear Retinoic Acid Receptors: Cloning, Analysis, and Function", M. Pfahl et al , Methods in Enzymology 189, p 256-270 (1990) which is incorporated herein by reference. The detailed procedure how to isolate the DNA plasmids from the respective bacteria is also set forth below in detail, in the form of specific instructions under the title "Supercoiled Plasmid Isolation".
(§3) Thus, in accordance with the test procedure, DNA plasmid which codes for one of the chimeric RARα, RARβ, RARγ, or RXRα receptor proteins is transfected into cultures of HeLa cells. […] As is known and will be readily understood by those skilled in the art, especially in view of the above-cited M. Pfahl et al. article, chimeric retinoid receptors involved in this assay include a ligand binding domain which recognizes and binds specific agonist molecules, such as retinoic acid and analogs. […]

Assay [2] relates to chimeric RARγ receptor protein. Briefly: Cationic Liposome Mediated Transfection Assay, RARγ. It counts as cell-based. Particulars: Table 1; 50% of maximum CAT activity of all-trans retinoic acid; HeLa cells. The procedure:
as §1, §2, §3

For assay [3], the system named is chimeric RXRα receptor protein. Briefly: Cationic Liposome Mediated Transfection Assay, RXRα. The assay is classed as cell-based. As to the method: as §1, §2
Thus, in accordance with the test procedure, DNA plasmid which codes for one of the chimeric RARα, RARβ, RARγ, or RXRα receptor proteins is transfected into cultures of HeLa cells. It is for this purpose that HeLa cells are grown in a medium during the first day of the assay detailed below as the "Cationic Liposome Mediated Transfection Assay". In the transfection procedure, which is performed during the second day of the transfection assay, the DNA plasmid coding for the CAT enzyme is also added to each cell culture, in addition to the respective chimeric RARα, or RARβ etc. coding plasmid. As is known and will be readily understood by those skilled in the art, especially in view of the above-cited M. Pfahl et al. article, chimeric retinoid receptors involved in this assay include a ligand binding domain which recognizes and binds specific agonist molecules, such as retinoic acid and analogs. These chimeric protein receptors (which were constructed in accordance with the teachings of the M. Pfahl. et al, article) also contain a a DNA binding domain, which is capable of binding to the "estrogen response element" (a DNA fragment) attached to the DNA plasmid coding for the CAT enzyme. […]

In assay [4] the test system is RAR and RXR receptor sites. Kind of assay: RAR versus RXR agonist specificity (in words). It counts as cell-based. Particulars: result in words. As to the method: The data obtained in the assay are evaluated and expressed as follows. For each test compound and for each subspecies of the RAR receptors a graph (or the mathematical equivalent of a graph) is prepared where the "counts per minute" (cpm) obtained in the scintillation counter measurements are plotted (on the y axis) against the concentration of the test compound. A similar graph (or mathematical equivalent) is prepared for retinoic acid. […] This is illustrated in the graphs of FIG. 1 and FIG. 3.
This reference compound is a known agonist of the RXRα receptor site.

Assay [5] has as its system HL-60 cdm-1 cells. Briefly: Assay 1: HL-60 cdm-1 cell count and microscopy after 72 hours. The assay is classed as cell-based, human. To be noted: 1 uM; for cell counts: control 5.1 × 10^+5 / ml; for inspection of microscope slides: versus control. An excerpt:
Sedimented cells were air dried, fixed in absolute methanol, stained with a Diff-quick reagent kit, mounted in Permount and visualized by brightfield light microscopy.

Assay [6] has as its system HL-60 cdm-1 cells. Kind of assay: Assay 2: DNA fragmentation (laddering) in HL-60 cdm-1 cells. To be noted: 1 μM, 48 hours; 1% agarose gel. It counts as cell-based, human. As to the method:
HL-60 cdm-1 cells were placed in a T-25 tissue culture flask in 8 ml of media (RPMI-1640 containing bovine insulin 5 mg/L, human transferin 5 mg/L and Na Selenite 5 μg/L) at a density of 2×10^5 cells/ml. AGN 191701 (Compound 1) was added to a final concentration of 1 μM (8 μl of a 1 mM stock solution) and the cells were cultured in a humidified incubator (5% CO2) at 37° C. in the dark for 48 hours. The media and cells were removed from the flask, the cells were pelleted (1100 rpm/7 min Beckman desk top centrifuge), the pellet was washed once with phosphate buffered saline (PBS) and then the pelleted cells were lysed by the addition of 200 μl of a solution containing 20 mM Tris-HCl pH 7.4, 0.4 mM EDTA, 0.4% Triton X-100. The lysate was centrifuged for 5 minutes in a microfuge (14,000 rpm) and the supernatant adjusted to a final concentration of 0.5M NaCl and 50% isopropanol. The solution was allowed to precipitate overnight at -20° C. and the precipitate that formed was pelleted in a microfuge (10 min, 14,000 rpm). The pellet was washed once in 70% ethanol, it was resuspended in 50 μl Tris EDTA (10 mM Tris HCl ph 7.4, 0.4 mM EDTA) and mixed with gel loading buffer. […] DNA was detected by ethidium bromide staining followed by visualization and photography under a UV lamp.

In assay [7] the test system is HL-60 cdm-1 cells. Kind of assay: Assay 3: morphology of HL-60 cdm-1 cells at 4 hours, 48 hours, 6 days. The assay is classed as cell-based, human. Particulars: 3 μl of 1 mM stock in 3 ml. As to the method:
HL-60 cdm-1 cells were plated in a 6-well tissue culture plate (Falcon) in 3 ml of media (RPMI-1640 containing bovine insulin 5 mg/L, human transferrin 5 mg/L and Na Selenite 5 μg/L) at a density of 1×10^5 cells/ml. Duplicate wells received either ethanol (3 μl) or 3 μl of a stock solution of AGN 191701 (Compound 1, 1 mM in ethanol). The cells were cultured in a humidified incubator (5% CO2) at 37° C. in the dark for either 4 hours, 48 hours or 6 days. At the indicated times an aliquot of the cells (50 μl) was sedimented onto a microscope slide using a cytospin centrifuge. Sedimented cells were air dried, fixed in absolute methanol, stained with a Diffquick reagent kit, mounted in permount and visualized by brightfield light microscopy.

The subject of assay [8] is human myeloid leukemia (HL-60 cdm1-1) cells. Kind of assay: Induction of apoptotic cell death in HL-60 cdm-1 cells (general statement). It counts as cell-based. Particulars: compared with ethanol control. The procedure:
In the assay, the human myeloid leukemia (HL-60 cdm1-1) cells are grown in cultures, and an RXR agonist compound, such as Compound 1 (AGN 191701) or Compound 3 (AGN 191659), is added to the culture.

Assay [9] has as its system chimeric RARα receptor protein. Briefly: Cationic Liposome Mediated Transfection Assay, RARα. The assay is classed as cell-based. Particulars: Table 1; 50% of maximum CAT activity of all-trans retinoic acid; HeLa cells. The procedure:
as §1
In connection with this assay it is known that retinoic acid receptors arena member of the steroid/thyroid receptor super family and that they contain domains which are interchangeable within individual receptors. Thus, plasmids for chimeric retinoid receptors containing estrogen DNA binding domain and estrogen response element chloramphenicol acetyl-transferase enzyme are constructed and are grown in specific cultured bacteria. […]
as §3

[10] abbreviates: Table 1; 50% of maximum CAT activity of AGN 191440; HeLa cells; read-out: EC50 RXRα.

Usually EC50 stands for the concentration needed to bring the measured effect to its halfway point.

Like-named read-outs stand apart in the source and are kept apart here.

Consider `C/C(=C\c1cc(C(=O)O)cs1)c1cc2c(cc1C)C(C)(C)CCC2(C)C` [Compound 1, 2-[(E)-2-(5,6,7,8-tetrahydro-3,5,5,8,8-pentamethylnaphthalen-2-yl)propen-1-yl]thiophene-4-carboxylic acid], for which the EC50 in assay [1] came out at 3350 nM; in assay [2], 1070 nM; in assay [3] (setting [10]), 67 nM. Further, the “RAR / RXR agonist specificity” value in assay [4] was “RXR specific agonist”. In the assay with HL-60 cdm-1 cells [5], this molecule had a cell counts of 70000 mL⁻¹. In the assay with HL-60 cdm-1 cells [5], the “inspection of microscope slides” value is recorded as “extensive cell death, almost all cells died”. Besides, the “DNA fragmentation (laddering)” value in the assay with HL-60 cdm-1 cells [6] is given as “pattern of DNA fragmentation”. In addition, the “cell morphology at 4 hours” value in the assay on HL-60 cdm-1 cells [7] (4 hours) is “nuclear pyknosis and nuclear as well as cytoplasmic hyperchromicity with the formation of cytoplasmic extensions (large blobs)”. Also, the “cell morphology at 48 hours” value in the assay with HL-60 cdm-1 cells [7] (48 hours) is “extensive cell death with numerous hyperchromatic nuclear fragments either free in the media or contained with shrunken cell remnants”. Also, in the assay with HL-60 cdm-1 cells [7] (6 days), the “cell morphology after 6 days” value is “the same hyperchromatic nuclear remnants are detected but in addition there are scattered multinucleated syncitial cells”.

On to `C/C(=C\c1ccc(C(=O)O)cc1)c1ccc2c(c1)C(C)(C)CCC2(C)C` [Compound 4, reference compound], for which the EC50 in [3] (read-out: EC50 RXRα; Table 1; 50% of maximum CAT activity of AGN 191440; HeLa cells) was over 10000 nM. For the same molecule, in assay [4], the “RAR / RXR agonist specificity” value was “specific RAR agonist” and the “activity at RXR receptor sites” value is “not active at RXR receptor sites”. Moreover, the apoptotic cell death result in [8] was “not active and not”. Besides, in the assay on HL-60 cdm-1 cells [5], the cell counts is 460000 mL⁻¹ and the “inspection of microscope slides” value is “no difference between the control”.

`C/C(=C\c1ccc(C(=O)O)cc1)c1cc2c(cc1C)C(C)(C)CCC2(C)C` [Compound 2, reference compound]: the EC50 is 3.16 µM in assay [9], 101 nM in assay [1], 364 nM in assay [2] and 448 nM in assay [3] (setting [10]).

With `C/C(=C\c1ccc(C(=O)O)s1)c1cc2c(cc1C)C(C)(C)CCC2(C)C` [Compound 3, 2-[(E)-2-(5,6,7,8-tetrahydro-3,5,5,8-pentamethylnaphthalen-2-yl)propen-1-yl]-5-thiophenecarboxylic acid], the EC50 in [9] was over 1 µM; in assay [1] it was 23 nM; in assay [2], 153 nM; in assay [3] (setting [10]), 11.2 nM. Further, in [4], the “RAR / RXR agonist specificity” value is given as “pan-agonist”.

(Values after US5399586A, “Treatment of mammals afflicted with tumors with compounds having RXR retinoid receptor agonist activity” (Allergan, Inc., priority 1993, dated 1995).)
